Measurements from patent US7217730B2, “Method for the use of pyranoindole derivatives to treat infection with Hepatitis C virus” (Wyeth, priority 2002, dated 2007).
Like-named read-outs stand apart in the source and are kept apart here.

What was measured:
[1] = target: BB7 (RNA-dependent RNA polymerase hepatitis C virus protein sequence derived from HCV replicon) (Hepatitis C virus genotype 1b, UniProt Q9WMX2); test: Hepatitis C polymerase inhibition, BB7 sequence; type: biochemical; conditions: Table 1B
[2] = target: T1, NS5B from the BK strain (genotype 1b) (Hepatitis C virus genotype 1b, UniProt P26663); test: Hepatitis C polymerase inhibition, NS5B BK strain, 33P-GTP filter assay; type: biochemical; conditions: for IC50: NS5B BK strain
T1 construct: NS5B from the BK strain (genotype 1b) is expressed in E. coli as a protein in which the 21 C-terminal amino acids are replaced; made in house; host or cells: E. coli
How it was run: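 Radiolabelled RNA synthesis was measured by filter capture and scintillation counting after EDTA stop. His-tagged, C-terminally truncated (Δ21) genotype 1b BK NS5B from E. coli, pre-exposed to compound for 15 min, copied a self-primed RNA template (~3 nM) with α-[33P]-GTP for 2 h at room temperature.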

[3] = Table 1A, read-out: HCV pol BK IC50

BB7 (RNA-dependent RNA polymerase hepatitis C virus protein sequence derived from HCV replicon), sequence (Q9WMX2 2420-3010): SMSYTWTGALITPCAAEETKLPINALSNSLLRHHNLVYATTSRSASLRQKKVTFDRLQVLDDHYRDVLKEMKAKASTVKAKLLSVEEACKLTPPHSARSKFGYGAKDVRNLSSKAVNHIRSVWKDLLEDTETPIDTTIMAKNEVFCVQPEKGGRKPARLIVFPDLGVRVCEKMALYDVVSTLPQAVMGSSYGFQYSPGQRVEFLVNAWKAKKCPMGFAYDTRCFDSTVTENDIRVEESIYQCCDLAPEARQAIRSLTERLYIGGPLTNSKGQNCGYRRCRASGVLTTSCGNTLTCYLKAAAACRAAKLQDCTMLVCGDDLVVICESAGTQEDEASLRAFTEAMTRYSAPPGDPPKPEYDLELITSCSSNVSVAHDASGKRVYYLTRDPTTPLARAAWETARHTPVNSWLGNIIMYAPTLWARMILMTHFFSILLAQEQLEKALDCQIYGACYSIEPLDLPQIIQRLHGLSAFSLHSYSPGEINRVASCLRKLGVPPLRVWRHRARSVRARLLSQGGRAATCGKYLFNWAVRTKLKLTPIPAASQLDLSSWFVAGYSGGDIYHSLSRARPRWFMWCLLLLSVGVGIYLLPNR
T1 sequence (P26663 2420-2989): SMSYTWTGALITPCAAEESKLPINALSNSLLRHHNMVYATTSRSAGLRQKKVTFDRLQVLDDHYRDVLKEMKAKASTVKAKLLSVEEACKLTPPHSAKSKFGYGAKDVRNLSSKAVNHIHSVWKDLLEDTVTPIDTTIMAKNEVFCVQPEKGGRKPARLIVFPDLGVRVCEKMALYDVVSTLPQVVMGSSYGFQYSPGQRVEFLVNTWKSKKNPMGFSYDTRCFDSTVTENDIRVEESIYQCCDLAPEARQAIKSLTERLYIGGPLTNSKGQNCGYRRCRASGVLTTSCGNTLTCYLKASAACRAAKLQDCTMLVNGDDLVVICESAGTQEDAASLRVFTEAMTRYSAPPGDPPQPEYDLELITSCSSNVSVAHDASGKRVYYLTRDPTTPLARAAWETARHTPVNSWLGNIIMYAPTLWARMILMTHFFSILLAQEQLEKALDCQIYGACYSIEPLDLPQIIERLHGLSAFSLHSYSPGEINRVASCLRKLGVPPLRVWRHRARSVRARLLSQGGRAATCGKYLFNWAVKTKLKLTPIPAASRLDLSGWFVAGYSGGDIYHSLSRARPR

| Molecule | IC50 [1] | IC50 ([2]; Table 1B, read-out: BK IC50) | IC50 [2, 3] | further results |
| --- | --- | --- | --- | --- |
| CC[C@H](C)C1(CC(=O)O)OCCc2c1[nH]c1c(C)ccc(Cl)c21 (mixture of isomers) [Example 261, (1R*,10S)-[5-chloro-8-methyl-1-(1-methylpropyl)-1,3,4,9-tetrahydropyrano[3,4-b]indol-1-yl]acetic acid] | 0.9 µM | 0.4 µM | – | – |
| CC[C@H](C)C1(CC(=O)O)OCCc2c1[nH]c1c(C#N)ccc(C(F)(F)F)c21 (mixture of isomers) [Example 279, (1R*,10S)-[8-cyano-1-(1-methylpropyl)-5-trifluoromethyl-1,3,4,9-tetrahydropyrano[3,4-b]indol-1-yl]acetic acid] | 2.4 µM | 2 µM | – | – |
| CC[C@H](C)C1(CC(=O)O)OCCc2c1[nH]c1c(C)ccc([N+](=O)[O-])c21 (mixture of isomers) [Example 300, (1R*,10S)-[8-methyl-1-(1-methylpropyl)-5-nitro-1,3,4,9-tetrahydropyrano[3,4-b]indol-1-yl]acetic acid] | 0.25 µM | 0.14 µM | – | – |
| CC[C@H](C)C1(CC(=O)O)OCCc2c1[nH]c1c(C)cc(F)c(C#N)c21 (mixture of isomers) [Example 318, (1R*,10S)-[5-cyano-6-fluoro-8-methyl-1-(1-methylpropyl)-1,3,4,9-tetrahydropyrano[3,4-b]indol-1-yl]acetic acid] | 0.25 µM | 0.14 µM | – | – |
| CC[C@H](C)C1(CC(=O)O)OCCc2c1[nH]c1c(Cl)ccc(C#N)c21 (mixture of isomers) [Example 324] | 0.35 µM | 0.2 µM | – | – |
| CC[C@H](C)[C@@]1(CC(=O)O)OCCc2c1[nH]c1c(C)ccc(C#N)c21 (racemic) [Example 289, (1R*,10S*)-[5-cyano-8-methyl-1-(1-methylpropyl)-1,3,4,9-tetrahydropyrano[3,4-b]indol-1-yl]acetic acid] | 0.23 µM | 0.12 µM | – | – |
| CC[C@@H](C)[C@@]1(CC(=O)O)OCCc2c1[nH]c1c(C)ccc(C#N)c21 (racemic) [Example 290, (1R*,10R*)-[5-cyano-8-methyl-1-(1-methylpropyl)-1,3,4,9-tetrahydropyrano[3,4-b]indol-1-yl]acetic acid] | 4.9 µM | 3.2 µM | – | – |
| CCC(C)C1(CC(=O)O)OCCc2c1[nH]c1c(C)ccc(C#N)c21 (racemic) [Example 291, (1R*,10S)-[5-cyano-8-methyl-1-(1-methylpropyl)-1,3,4,9-tetrahydropyrano[3,4-b]indol-1-yl]acetic acid] | 0.5 µM | 0.23 µM | – | – |
| CC[C@H](C)[C@@]1(CC(=O)O)OCCc2c1[nH]c1c(F)ccc(C#N)c21 (racemic) [Example 313, (1R*,10S*)-[5-cyano-8-fluoro-1-(1-methylpropyl)-1,3,4,9-tetrahydropyrano[3,4-b]indol-1-yl]acetic acid] | 1.5 µM | 1.8 µM | – | – |
| CCC(C)C1(CC(=O)O)OCCc2c1[nH]c1c(F)ccc(C#N)c21 (racemic) [Example 314, (1R*,10S)-[5-cyano-8-fluoro-1-(1-methylpropyl)-1,3,4,9-tetrahydropyrano[3,4-b]indol-1-yl]acetic acid] | 3.1 µM | 1.4 µM | – | – |
| CC[C@@H](C)[C@@]1(C(=O)O)OCCc2c1[nH]c1c(C)ccc(C#N)c21 (racemic) [Example 336, (1R*,10R*)-[5-cyano-8-methyl-1-(1-methylpropyl)-1,3,4,9-tetrahydropyrano[3,4-b]indol-1-yl]carboxylic acid] | 8.7 µM | 4.7 µM | – | – |
| CC[C@H](C)[C@@]1(C(=O)O)OCCc2c1[nH]c1c(F)ccc(C#N)c21 (racemic) [Example 348, (1R*,10S*)-[5-cyano-8-fluoro-1-(1-methylpropyl)-1,3,4,9-tetrahydropyrano[3,4-b]indol-1-yl]carboxylic acid] | > 30 µM | > 30 µM | – | – |
| CC[C@H](C)[C@@]1(C(=O)O)OCCc2c1[nH]c1c(C)ccc(C#N)c21 (relative stereo) [Example 335, (1R*,10S*)-[5-cyano-8-methyl-(1-methylpropyl)-1,3,4,9-tetrahydropyrano[3,4-b]indol-1-yl]carboxylic acid] | > 30 µM | > 30 µM | – | – |
| CC[C@@H](C)[C@@]1(C(=O)O)OCCc2c1[nH]c1c(F)ccc(C#N)c21 (relative stereo) [Example 349, (1R*,10R*)-[5-cyano-8-fluoro-1-(1-methylpropyl)-1,3,4,9-tetrahydropyrano[3,4-b]indol--1-yl]carboxylic acid] | > 24 µM | 4.4 µM | – | – |
| CC[C@@H](C)[C@@]1(CC(=O)O)OCCc2c1[nH]c1c(F)ccc(C#N)c21 (single isomer, unassigned) [Example 312, (1R*,10R*)-[5-cyano-8-fluoro-1-(1-methylpropyl)-1,3,4,9-tetrahydropyrano[3,4-b]indol-1-yl]acetic acid] | > 30 µM | 16 µM | – | – |
| C/C=C/CCC1(CC(=O)O)OCCc2c1[nH]c1c(F)cc(C)c(C#N)c21 (stereo not shown) [Example 223, {5-cyano-8-fluoro-6-methyl-1-[(3E)-pent-3-enyl]-1,3,4,9-tetrahydropyrano[3,4-b]indol-1-yl}acetic acid] | – | – | > 5 µM | inhibition at 20 µM ([2]; Table 1A, 20 μM compound, read-out: HCV pol % inh at 20 μM): 37% |
| CCCC1(CC(=O)O)OCCc2c1[nH]c1c(C)ccc(C(=O)NC)c21 (stereo not shown) [Example 224, (8-methyl-5-methylcarbamoyl-1-propyl-1,3,4,9-tetrahydropyrano[3,4-b]indol-1-yl)acetic acid] | – | – | > 20 µM | – |
| CCCC1(CC(=O)O)OCCc2c1[nH]c1c(C)ccc(C(N)=O)c21 (stereo not shown) [Example 226, (5-carbamoyl-8-Methyl-1-propyl-1,3,4,9-tetrahydropyrano[3,4-b]indol-1-yl)acetic acid] | – | – | > 20 µM | – |

| Molecule | IC50 [1] | IC50 ([2]; Table 1B, read-out: BK IC50) | IC50 [2, 3] | further results |
| --- | --- | --- | --- | --- |
| CCCC1(CC(=O)O)OCCc2c1[nH]c1c(C)ccc(C(=O)N(C)C)c21 (stereo not shown) [Example 227, (5-dimethylcarbamoyl-8-Methyl-1-propyl-1,3,4,9-tetrahydropyrano[3,4-b]indol-1-yl)acetic acid] | – | – | > 20 µM | – |
| CCCC1(CC(=O)O)OC(C)Cc2c1[nH]c1c(F)ccc(C#N)c21 (stereo not shown) [Example 228, (5-cyano-8-fluoro-3-methyl-1-propyl-1,3,4,9-tetrahydropyrano[3,4-b]indol-1-yl)acetic acid] | – | – | 8.9 µM | – |
| CCCC1(CC(=O)O)OCC(C)c2c1[nH]c1c(Cl)ccc(Cl)c21 (stereo not shown) [Example 229, (5,8-dichloro-4-methyl-1-propyl-1,3,4,9-tetrahydropyrano[3,4-b]indol-1-yl)acetic acid] | – | – | 7 µM | – |
| CCCC1(CC(=O)O)OCC(C)(C)c2c1[nH]c1c(Cl)ccc(Cl)c21 (stereo not shown) [Example 230, (5,8-dichloro-4,4-dimethyl-1-propyl-1,3,4,9-tetrahydropyrano[3,4-b]indol-1-yl)acetic acid] | – | – | 3.1 µM | – |
| CCCC1(CC(=O)O)OCCc2c1n(C)c1c(Cl)ccc(Cl)c21 (stereo not shown) [Example 232, (5,8-dichloro-9-methyl-1-propyl-1,3,4,9-tetrahydropyrano[3,4-b]indol-1-yl)acetic acid] | – | – | 7.6 µM | – |
| C=CCn1c2c(c3c(Cl)ccc(Cl)c31)CCOC2(CCC)CC(=O)O (stereo not shown) [Example 233, (9-allyl-5,8-dichloro-1-propyl-1,3,4,9-tetrahydropyrano[3,4-b]indol-1-yl)acetic acid] | – | – | > 20 µM | – |
| CCCC1(CC(=O)O)OCCc2c1n(Cc1ccccc1)c1c(Cl)ccc(Cl)c21 (stereo not shown) [Example 234, (9-benzyl-5,8-dichloro-1-propyl-1,3,4,9-tetrahydropyrano[3,4-b]indol-1-yl)acetic acid] | – | – | 13 µM | – |
| CCOCC1(CC(=O)O)OCCc2c1[nH]c1cc(Cl)c(Cl)cc21 (stereo not shown) [Example 241, (6,7-dichloro-1-ethoxymethyl-1,3,4,9-tetrahydropyrano[3,4-b]indol-1-yl)acetic acid] | > 30 µM | – | – | – |
| CC1(CC(=O)O)OCCc2c1[nH]c1c(Cl)ccc(Cl)c21 (stereo not shown) [Example 242, (5,8-dichloro-1-methyl-1,3,4,9-tetrahydropyrano[3,4-b]indol-1-yl)acetic acid] | 18 µM | – | – | – |
| COCC1(CC(=O)O)OCCc2c1[nH]c1c(Cl)ccc(C(F)(F)F)c21 (stereo not shown) [Example 264, (8-chloro-1-methoxymethyl-5-trifluoromethyl-1,3,4,9-tetrahydropyrano[3,4-b]indol-1-yl)acetic acid] | – | > 30 µM | – | – |
| N#Cc1ccc(F)c2[nH]c3c(c12)CCOC3(CC(=O)O)C1CCCCC1 (stereo not shown) [Example 309, (5-cyano-1-cyclohexyl-8-fluoro-1,3,4,9-tetrahydropyrano[3,4-b]indol-1-yl)acetic acid] | – | 26 µM | – | – |
| CCC[C@]1(C(=O)O)OCCc2c1[nH]c1c(F)ccc(C#N)c21 [Example 344, (1S)-(5-cyano-8-fluoro-1-propyl-1,3,4,9-tetrahydropyrano[3,4-b]indol-1-yl)carboxylic acid] | – | 0.7 µM | – | – |
| (1-propyl-8-thien-2-yl-1,3,4,9-tetrahydropyrano[3,4-b]indol-1-yl)acetic acid [Example 95] | – | – | 14.4 µM | HCV pol % inh at 20 μM ([2]; Table 1A, 20 μM compound): 68% |
| (4-cyclobutyl-5,8-dichloro-1-propyl-1,3,4,9-tetrahydropyrano[3,4-b]indol-1-yl)acetic acid [Example 231] | – | – | 7.2 µM | – |
| (5-bromo-8-fluoro-1,6-dimethyl-1,3,4,9-tetrahydropyrano[3,4-b]indol-1-yl)acetic acid [Example 163] | – | – | > 10 µM | HCV pol % inh at 20 μM ([2]; Table 1A, 20 μM compound): 28% |
| (5-cyano-8-fluoro-6-methyl-1-propyl-1,3,4,9-tetrahydropyrano[3,4-b]indol-1-yl)acetic acid [Example 221] | – | – | 0.43 µM | HCV pol % inh at 20 μM ([2]; Table 1A, 20 μM compound): 81% |
| (8-fluoro-5-iodo-6-methyl-1-propyl-1,3,4,9-tetrahydropyrano[3,4-b]indol-1-yl)acetic acid [Example 218] | – | – | 0.29 µM | HCV pol % inh at 20 μM ([2]; Table 1A, 20 μM compound): 92% |
